{
  "source": "patent US11726081B2",
  "about": "“Methods to identify modulators of tau protein structure” (REGENTS OF THE UNIVERSITY OF MINNESOTA, priority 2019, dated 2023)",
  "key": {"[1]": {"target": "purified recombinant full-length 2N4R wild-type (WT) tau protein (Homo sapiens, UniProt P10636)", "assay": "Surface plasmon resonance (SPR) binding assay, WT tau", "settings": "for direct binding to immobilized tau protein: 1 nM to 5 μM"}, "WT 2N4R tau": {"system": "WT 2N4R tau", "assay": "Single-molecule FRET (smFRET) on labelled tau monomer", "assay_type": "biochemical", "settings": "5 μM", "excerpt": "For site-specific labeling with maleimide-reactive fluorophores, cysteine residues were introduced using QuikChange Site-Directed Mutagenesis (Stratagene). Naturally occurring cysteines were mutated to serines. Labelling positions were selected to roughly mark the boundaries of the N-terminal domain or the proline-rich and microtubule-binding region of tau. Tau protein was purified as described above and labeled immediately following purification following published protocols. Briefly, the protein (typically 200 μL of ˜100 μM protein) was incubated with 1 mM DTT for 30 minutes at room temperature followed by exchange into labeling buffer (20 mM Tris pH 7.4, 50 mM NaCl, and 6 M guanidine HCl) to remove DTT. […]\nSingle-molecule FRET measurements were carried out using ˜30 pM of labelled tau in phosphate buffer (40 mM potassium phosphate, 50 mM KCl, pH 7.4) in 8-chambered Nunc coverslips (ThermoFisher) passivated with poly(ethylene glycol) poly(L-lysine) (PEG-PLL) to reduce protein adsorption to the chambers. […] Fluorescence emission was collected through the objective and passed through a 150 μm diameter pinhole. Photons were separated by an HQ585LP dichroic in combination with ET525/50M and HQ600LP filters and detected by avalanche photodiodes. […] The FRET efficiency (ETeff) was calculated using SymphoTime 64 software. […]"}, "GFP-32AA-RFP": {"system": "GFP-32AA-RFP", "assay": "GFP-32AA-RFP fluorophores-only FRET control", "assay_type": "cell-based, human", "method": "(§1) HEK293 and SH-SY5Y cells (ATCC) were cultured in phenol red-free Dulbecco's Modified Eagle Medium (DMEM, Gibco) supplemented with 2 mM L-Glutamine (Invitrogen), heat-inactivated 10% fetal bovine serum (FBS HI, Gibco), 100 U/ml penicillin and 100 μg/ml streptomycin (Gibco). Cell cultures were maintained in an incubator with 5% CO2 (Forma Series II Water Jacket CO2 Incubator, Thermo Scientific) at 37° C. […] To generate stable cell lines expressing GFP-tau-RFP or tau-GFP only, HEK293 cells were transiently transfected using Lipofectamine 3000 with GFP-tau-RFP or tau-GFP DNA plasmids. Transiently transfected cells were treated with G418 (Enzo Life Sciences, Farmingdale, N.Y.) to eliminate non-expressing cells. Stable cell lines expressing GFP-tau-RFP or tau-GFP with the largest population of expressing cells were selected by fluorescence microscopy. The GFP-linker-RFP (linker contains 32 amino acids, GFP-32AA-RFP) control stable cell line was generated as described previously. The control cells expressing only free soluble fluorophores (GFP or RFP only) were generated by transiently transfecting HEK293 cells using Lipofectamine 3000 with plasmids containing GFP or RFP DNAs at the same plasmid concentration as the inter-molecular tau FRET biosensor.\n(§2) The compound was dissolved in DMSO to make a 10 mM stock solution, which was serially diluted in 96-well mother plates. […]"}, "soluble free GFP/RFP": {"system": "soluble free GFP/RFP", "assay": "Soluble free GFP/RFP-only FRET control", "assay_type": "cell-based, human", "method": "as §1, §2"}, "[2]": {"target": "tau preformed fibrils (PFF) (Homo sapiens, UniProt P10636)", "assay": "ThT assay on tau preformed fibrils (PFF)", "assay_type": "biochemical", "settings": "DTT 5 mM", "method": "HEK293 cells were transfected with tau-RFP (at equivalent DNA concentration as used in the tau FRET biosensor) for 48 hours prior to the addition of tau preformed fibrils (PFF). Tau-GFP was not used as it would interfere with the thioflavin-S(ThS) signal. To make the PFF, 100 μl of purified tau proteins (10 μM) with DTT (5 mM) and heparin (0.4 mg/ml) were first incubated for 120 hours at 37° C. and shook at 1000 rpm in a thermal shaker (Thermo Fisher Scientific). After incubation, the sample was subjected to ultracentrifugation at 80,000 rpm for 30 minutes. The pellet was collected and sonicated to break up the fibrils into smaller pieces. The concentration of the fibrils was then measured by BCA. […] Cells were then imaged with a fluorescence microscope using EVOS-FL cell imaging systems at 20× magnification. Mean fluorescence intensity for each image was quantified using ImageJ and values were normalized to untransfected controls.\nThioflavin-T (ThT, Sigma, product no. T3516) was dissolved in PBS buffer and was filtered through a 0.2 μm syringe filter to make a stock solution of 2.5 mM. […] The ThT samples (50 μl each) were transferred to a black 96-well non-binding surface microplate with clear bottom (Corning product no. 3655) and incubated at 37° C. with mild shaking (200 rpm) in the Cytation 3 plate reader. […] Readings were acquired every 20 minutes for a total of 120 hours."}, "[3]": {"target": "T1, WT tau FRET biosensor (tau-GFP/RFP) (Homo sapiens, UniProt P10636)", "assay": "WT tau inter-molecular FRET biosensor in HEK293 cells (dose-response, functionality)", "assay_type": "cell-based", "parameters": "cDNA encoding full-length 2N4R tau (441 amino acids); […]; expressed in transfected cells; host or cells: HEK293, transient, tau-GFP:tau-RFP plasmids 1:20", "method": "as §1, §2"}, "[4]": {"target": "T2, tau intra-molecular FRET biosensor (GFP-tau-RFP) (Homo sapiens, UniProt P10636)", "T2 construct": "The FRET biosensors express full-length 2N4R wild-type (WT) tau; […]; expressed in transfected cells", "assay": "Cellular tau intra-molecular FRET biosensor, dose-response", "assay_type": "cell-based", "settings": "GFP-tau-RFP stable HEK293 cells; read-out: EC50, reduction of intra-molecular FRET", "method": "To generate tau-GFP and tau-RFP, cDNA encoding full-length 2N4R tau (441 amino acids) was fused to the N-terminus of EGFP and TagRFP vectors. […] The GFP-tau-RFP was generated by fusing the N-terminal of tau to the C-terminus of GFP and the C-terminus of tau to the N-terminus of RFP. All constructs contain the monomeric mutation A206K to prevent constitutive fluorophore clustering.\nas §1, with “The control cells expressing only free soluble fluorophores (GFP or RFP only) were generated by transiently transfecting HEK293 cells using Lipofectamine 3000 with plasmids containing GFP or RFP DNAs at the same plasmid concentration as the inter-molecular tau FRET biosensor.” left out"}, "[5]": {"target": "T1, WT tau FRET biosensor (tau-GFP/RFP)", "assay": "Pilot HTS of NCC library with tau FRET biosensor (fluorescence lifetime)", "settings": "10 μM, 2 hours"}, "purified WT tau proteins": {"target": "purified WT tau proteins (Homo sapiens, UniProt P10636)", "assay": "Heparin induced thioflavin-T (ThT) aggregation assay", "assay_type": "biochemical", "method": "Thioflavin-T (ThT, Sigma, product no. T3516) was dissolved in PBS buffer and was filtered through a 0.2 μm syringe filter to make a stock solution of 2.5 mM. ThT was then diluted to […] prior to addition to the tau proteins. The samples for ThT measurements were prepared by mixing 25 μl of 20 μM tau proteins with 25 μl of 20 μM of ThT, resulting in final concentrations of 10 μM tau proteins and 10 μM ThT. DTT (5 mM) and heparin (0.4 mg/ml) were then added to the samples; a control sample lacked addition of heparin. Lastly, the samples were treated with MK-886 (0.5 μM or 5 μM) and gossypetin (50 μM) with DMSO added to the no-compound controls. The ThT samples (50 μl each) were transferred to a black 96-well non-binding surface microplate with clear bottom (Corning product no. 3655) and incubated at 37° C. with mild shaking (200 rpm) in the Cytation 3 plate reader. The ThT fluorescence was measured by the Cytation 3 plate reader through the bottom of the plate with excitation filter of 440 nm and emission filter of 480 nm. Readings were acquired every 20 minutes for a total of 120 hours."}, "[6]": {"settings": "control, 72 hours of incubation"}},
  "note": "“Also recorded” adds a separate entry of the source.",
  "data": [
    {"smiles": "Cc1cccc(Nc2ccncc2S(=O)(=O)NC(=O)NC(C)C)c1", "note": "[Torsemide]", "values": [
      {"measurement": "direct binding to immobilized tau protein", "setting": "[1]", "value": "no direct binding or interaction"}
    ]},
    {"smiles": "CCc1oc2ccccc2c1C(=O)c1cc(Br)c(O)c(Br)c1", "note": "[Benzbromarone]", "values": [
      {"measurement": "direct binding to immobilized tau protein", "setting": "[1]", "value": "no direct binding or interaction"}
    ]},
    {"smiles": "CC(C)c1ccc2c(c1)c(SC(C)(C)C)c(CC(C)(C)C(=O)O)n2Cc1ccc(Cl)cc1", "note": "[MK-886]", "values": [
      {"measurement": "smFRET change, N-terminal domain labelled construct", "setting": "WT 2N4R tau", "value": "only a minor decrease in FRET; also recorded: only minor differences"},
      {"measurement": "smFRET change, PRR/MTBR labelled construct", "setting": "WT 2N4R tau", "value": "substantial increase in FRET; also recorded: substantially more compact (increase in FRET)"},
      {"measurement": "FRET change in GFP-32AA-RFP control cells", "setting": "GFP-32AA-RFP", "value": "does not cause any significant FRET change"},
      {"measurement": "FRET change in soluble free GFP/RFP-only control cells", "setting": "soluble free GFP/RFP", "value": "does not cause any significant FRET change"},
      {"measurement": "ThT signal from tau preformed fibrils (PFF)", "setting": "[2]", "value": "did not reduce the ThT signal"},
      {"measurement": "EC50", "setting": "[3]; read-out: EC50, decrease of FRET efficiency, WT tau biosensor", "value": 1400, "unit": "nM"},
      {"measurement": "EC50", "setting": "[4]", "value": 2120, "unit": "nM"},
      {"measurement": "size of FRET change among the hits", "setting": "[5]", "value": "strongest change in FRET; also recorded: largest FRET change"},
      {"measurement": "direct effect on ThT fluorescence", "setting": "purified WT tau proteins; [6]", "value": "did not have a direct effect on ThT fluorescence; also recorded: do not interfere with ThT fluorescence"},
      {"measurement": "nucleation of fibril formation without heparin", "setting": "purified WT tau proteins; [6]", "value": "unable to nucleate tau fibrillization; also recorded: did not act to nucleate for fibril formation; also recorded: does not act as a nucleation center"},
      {"measurement": "lag phase of tau β-sheet fibril formation", "setting": "purified WT tau proteins; heparin 0.4 mg/ml, MK-886 0.5 and 5 μM", "value": "reduces the lag phase; also recorded: shortens the lag phase"},
      {"measurement": "direct binding to immobilized tau protein", "setting": "[1]", "value": "dose-dependent binding"},
      {"measurement": "Kd", "setting": "[1]; steady-state, immobilized tau, 25° C.", "value": 178, "unit": "nM"}
    ]},
    {"smiles": "O=c1c(O)c(-c2ccc(O)c(O)c2)oc2c(O)c(O)cc(O)c12", "note": "[gossypetin]", "values": [
      {"measurement": "ThT signal from tau preformed fibrils (PFF)", "setting": "[2]", "value": "showed a significant decrease"},
      {"measurement": "sensitivity of the FRET biosensor to the compound", "setting": "[3]; functionality test", "value": "not"},
      {"measurement": "direct effect on ThT fluorescence", "setting": "purified WT tau proteins; [6]", "value": "do not interfere with ThT fluorescence"}
    ]},
    {"smiles": "Oc1cc(Cl)ccc1Oc1ccc(Cl)cc1Cl", "note": "[Triclosan]", "values": [
      {"measurement": "direct binding to immobilized tau protein", "setting": "[1]", "value": "no direct binding or interaction"}
    ]},
    {"smiles": "CCCCNc1cc(C(=O)O)cc(S(N)(=O)=O)c1Oc1ccccc1", "note": "[Bumetanide]", "values": [
      {"measurement": "direct binding to immobilized tau protein", "setting": "[1]", "value": "no direct binding or interaction"}
    ]}
  ]
}
